# What was measured:
# phospho-GSK3β = assay: Western blot of signaling proteins in LK-treated cerebellar granule neurons: phospho-GSK3β; format: cell-based, rat; details: LK medium with compound, 3 h
# Protocol: (§1) Cultures of cerebellar granule neurons were switched to HK medium, LK medium, or LK medium containing of HSB-13, HSB-22, or ASK-2a for 3 h. Total cell lysates were prepared and analyzed by Western blotting using antibodies against phospho-Akt (Ser473), phospho-MEK, phospho-ERK, and phospho-GSK3β.
# (§2) The culture medium was removed and the cells were washed twice with ice-cold phosphate-buffered saline (PBS) and lysed in lysis buffer [1% Triton, 20 mM Tris-HCl (pH 7.5), 150 mM NaCl, 1 mM Na2EDTA, 1 mM EGTA, 2.5 mM sodium pyrophosphate, 1 mM beta-glycerophosphate, 1 mM Na3VO4, 1 μg/mL leupeptin and 1 protease inhibitor mixture]. Protein concentrations were measured and normalized using Bradford protein assay reagent (Bio-Rad, Hercules, Calif., USA). Following normalization, 40 μg of protein was subjected to Western blotting. Immunoreactivity was examined by enhanced chemiluminescence (Amersham Bioscience, Piscataway, N.J., USA).
# Since the Raf-MEK-ERK and the PI-3 Kinase-Akt pathways are not required for neuroprotection by HSB-13, the involvement of other signaling molecules that are known to promote neuronal survival was determined. GSK3β is a proapoptotic molecule that is activated during apoptosis in many neuronal and non-neuronal systems. Under survival promoting conditions GSK3β is kept inactivated by phosphorylation at an inhibitory site, a modification that can be induced by Akt as well as by other kinases.
# phospho-Akt (Ser473) = assay: Western blot of signaling proteins in LK-treated cerebellar granule neurons: phospho-Akt (Ser473); format: cell-based, rat; details: LK medium with compound
# Protocol: as §1, §2
# (§3) Activation of MEK, ERK and Akt requires their phosphorylation, which can be detected using phospho-specific antibodies. As previously reported by the inventors and others (Chin et al., 2004; Johnson et al., 2005; Majdzadeh et al., 2008), MEK and ERK phosphorylation decreases following LK treatment of cerebellar granule neurons. This decrease is not prevented by HSB-13, HSB-22, or ASK-2a (FIG. 4). […] This is also not affected by treatment with ASK-2a or HSB-22 (FIG. 4).
# phospho-MEK = assay: Western blot of signaling proteins in LK-treated cerebellar granule neurons: phospho-MEK; format: cell-based, rat; details: LK medium with compound, 3 h
# Protocol: as §1, §2, §3
# HT-22 cells = assay: HCA-induced toxicity in HT-22 neuroblastoma cells; format: cell-based, mouse
# Protocol: FIGS. 6A and 6B show the effects of HSB-13 on HT-22 cells and the quantification of cell death. […] HT-22 cells were treated with no additives (Un), 1.5 mM HCA, or 1.5 mM HCA plus 25 μM HSB-13, 25 μM ASK-2a, and 25 μM HSB-22. In FIG. 6A, the appearance of the cultures at 24 h after treatment was visualized by phase-contrast microscopy (Phase). […] Viability was expressed as % of untreated cultures (control);
# HT-22 cells were treated with no additives (Control), 2 mM HCA, or 2 mM HCA+25 μM HSB-13. The appearance of the cultures at 24 h after treatment is shown.
# The mouse HT-22 neuroblastoma cell line was purchased from ATCC (Manassas, Va., USA) and cultured in Dulbecco's modified Eagle's medium (DMEM) with 4.5 g/L glucose (without sodium pyruvate) supplemented with 10% FBS, 100 units/ml penicillin and 100 μg/ml streptomycin. Cultures were plated at ˜30% confluence for HCA treatment. HCA was made as 150 mM stock solution adjusted to pH 7.5 and used at a final concentration of 1.5 mM.
# Treatment of the mouse neuroblastoma HT-22 cell line with homocysteic acid (HCA) induces apoptosis through glutathione depletion and oxidative stress (Murphy et al. 1990; Ratan et al. 1994a, 1994b). The inventors studied whether HSB-13, HSB-22, and ASK-2a were protective in this paradigm of oxidative stress-induced neuronal death. HSB-13 prevents HCA-induced cell death. […] Thus, HSB-13, but not ASK-2a and HSB-22, is protective against oxidative stress-induced neuronal death.
# Analysis in cultured cerebellar granule neurons identified HSB-13 as one with strong neuroprotective efficacy. We therefore selected HSB-13 to examine whether its protective effects extended to other neuronal types and apoptotic stimuli. Treatment of the hippocampally-derived neuroblastoma cell line, HT-22, with homocysteic acid (HCA) causes oxidative stress due to glutathione depletion leading to apoptosis (Murphy et al., 1990; Ratan et al., 1994a and 1994b).
# [1] = any of the three doses examined (data not shown)
SMILES,dephosphorylation of GSK3β in LK (phospho-GSK3β),phosphorylation of Akt at Ser473 in LK (phospho-Akt (Ser473)),LK-induced decrease of MEK phosphorylation (phospho-MEK),protection against HCA-induced cell death (HT-22 cells; [1]),"protection against HCA-induced cell death (HT-22 cells; 1.5 mM HCA, 5 μM compound, 24 h)","protection against HCA-induced cell death (HT-22 cells; 1.5 mM HCA, 25 μM compound, 24 h)","protection against HCA-induced cell death (HT-22 cells; 2 mM HCA, 5 uM compound)","HCA-induced cell death (HT-22 cells; 2 mM HCA, 25 uM compound, 24 h (FIG. 9))"
O=C1Nc2ccccc2OC1=Cc1cc(Br)c(O)c(Br)c1 [ASK-2a],inhibit dephosphorylation,not affected,not prevented,failed to protect,,,,
"Nc1ccc2c(c1)NC(=O)/C(=C/c1cc(Br)c(O)c(Br)c1)O2 [HSB-13, (Z)-6-amino-2-(3,′5′-dibromo-4′-hydrozybenzylidene)-2H-benzo[b][1,4]oxazin-3(4H)-one]",not inhibited,inhibits Akt (Ser473) phosphorylation even more than that seen in LK,not prevented,,robust protection,highest protection,not protective,prevented
O=C1Nc2cc(Cl)ccc2O/C1=C\c1cc(Br)c(O)c(Br)c1 [HSB-22],inhibit dephosphorylation,not affected,not prevented,failed to protect,,,,
